Among the data in patent US6514997B2, “Antipicornaviral compounds and compositions, their pharmaceutical uses, and materials for their synthesis” (Agouron Pharmaceuticals, Inc., priority 1999, dated 2003) are kinact/KI, EC50 and CC50 values, retold here.

Series [1] addresses T1, Recombinant rhinovirus 3C protease, serotype 14 (Human rhinovirus 14, UniProt P03303).
T1 construct: Recombinant rhinovirus 3C proteases; made in house
The experiment in a line: Inhibition of rhinovirus 3C protease (FRET assay, kobs/[I]), serotype 14. In kind it is biochemical. The settings on record: pH 7.6, read-out: kobs/[I] (3C protease inhibition activity). The method in brief:
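kobs/[I] values came from progress curves of reactions started by adding 50-100 nM protease to buffer (50 mM tris pH 7.6, 1 mM EDTA, 2% DMSO) containing compound and ~1 μM quenched DABCYL-EDANS substrate. Rising EDANS fluorescence reported cleavage.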

For series [2], the system named is HRV-14. The series can be described thus: Antirhinoviral H1-HeLa cell culture assay (XTT cell protection, EC50), HRV-14. The class given is cell-based, human rhinovirus (HRV) serotype-14 in H1-HeLa cells. Conditions: Rhinovirus B, HRV14, H1-HeLa. The method in brief: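 XTT dye reduction (450/650 nm) measured survival of H1-HeLa cells two days after HRV-14 infection at m.o.i. 0.13 in the presence of compound, giving EC50. The therapeutic index is CC50 divided by EC50.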
(Formazan colour is commonly taken as a measure of viable cells.)

Series [3] relates to strains of human rhinovirus (HRV). The series can be described thus: Antirhinoviral H1-HeLa cell culture assay (XTT cell protection, EC50), other HRV strains. The class given is cell-based, human rhinovirus in H1-HeLa cells. The settings on record: read-out: EC50. Put shortly:
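Protection of H1-HeLa cells from rhinovirus was scored two days post-infection via XTT dye reduction read at 450/650 nm, alongside mock-infected cells for toxicity. CC50/EC50 gives the therapeutic index.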

Series [4] is described as follows: Cytotoxicity (CC50) in mock-infected H1-HeLa cells, XTT dye reduction. The class given is cell-based, human. Conditions: human, H1-HeLa cells, mock-infected. The method in brief:
(§1)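 XTT dye reduction (formazan, 450/650 nm) in H1-HeLa cells, mock-infected, gave CC50.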

Series [5] concerns H1-HeLa cells. The description is as above. The class given is cell-based, human. The method in brief: as §1
Setting [6] is: Human rhinovirus sp., HRV3, H1-HeLa, HRV-3.
Setting [7] is: Human rhinovirus sp., HRV9, H1-HeLa, HRV-9.
The mark [8] stands for this setting: Human rhinovirus sp., HRV10, H1-HeLa, HRV-10.
Setting [9] is: Human rhinovirus sp., HRV16, H1-HeLa, HRV-16.
The mark [10] stands for this setting: Human rhinovirus sp., HRV25, H1-HeLa, HRV-25.
[11] abbreviates: Human rhinovirus sp., HRV39, H1-HeLa, HRV-39.

Each structure is given as a SMILES string. pEC50: −log10 of the molar value. Like-named read-outs stand apart in the source and are kept apart here. Bounds are passed on as bounds.

T1 sequence (P03303 1538-1719): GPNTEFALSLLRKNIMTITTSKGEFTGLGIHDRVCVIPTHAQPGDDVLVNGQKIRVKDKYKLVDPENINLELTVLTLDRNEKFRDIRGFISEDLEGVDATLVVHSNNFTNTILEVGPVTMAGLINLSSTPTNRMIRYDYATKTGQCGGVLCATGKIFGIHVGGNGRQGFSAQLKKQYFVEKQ

For `Cc1cc(C(=O)Nc2cccn([C@@H](Cc3ccc(F)c(F)c3)C(=O)N[C@H](/C=C/C(=O)OC(C)(C)C)C[C@@H]3CCNC3=O)c2=O)no1` [Compound 46], in series [1] (HRV-14), the kinact/KI is 350000 M⁻¹ s⁻¹. Also, the pEC50 is 8.22 in series [2]; 6.74 in series [3] (H1-HeLa, HRV-1A); 6.84 in series [3] (H1-HeLa, HRV-2); 7.96 in series [3] (H1-HeLa, HRV-23); 8.30 in series [3] (Human rhinovirus sp., H1-HeLa, HRV-Hanks); 7.35 in series [3] (setting [6]). Further, the pEC50 in series [3] (setting [7]) is 6.82; in series [3] (setting [8]) it was 6.87; in series [3] (Human rhinovirus sp., HRV11, H1-HeLa, HRV-11), 8.52; in series [3] (Human rhinovirus sp., HRV13, H1-HeLa, HRV-13) it was 7.11; in series [3] (setting [9]), 6.80; in series [3] (Human rhinovirus sp., HRV19, H1-HeLa, HRV-19) it was 7.70. Moreover, the pEC50 in series [3] (setting [10]) was 6.73; in series [3] (setting [11]), 6.64; in series [3] (Human rhinovirus sp., HRV78, H1-HeLa, HRV-78), 7.60. The molecule also yielded a CC50 at 2 days in series [4] (line of HRV-14) above 10000 nM. For the same molecule, the CC50 in series [5] (line of HRV-1A), in series [5] (line of HRV-2), in series [5] (line of HRV-3), in series [5] (line of HRV-9), in series [5] (line of HRV-10) and in series [5] (line of HRV-11) was above 10000 nM throughout. Moreover, the CC50 in series [5] (line of HRV-13), in series [5] (line of HRV-16), in series [5] (line of HRV-19), in series [5] (line of HRV-23), in series [5] (line of HRV-25) and in series [5] (line of HRV-39) was above 10000 nM each time. Moreover, the half-maximal cytotoxic concentration (CC50) in series [5] (line of HRV-78) and in series [5] (line of HRV-Hanks) was above 10000 nM throughout.

With `Cc1cc(C(=O)Nc2cccn([C@@H](Cc3ccc(F)c(F)c3)C(=O)N[C@H](/C=C/C(=O)OC3CCCC3)C[C@@H]3CCNC3=O)c2=O)no1` [Compound 49, trans-(2′S,3″″″S,4S)-4-[3′-(3″,4″-Difluorophenyl)-2′-(3′″-{[1″″-(5′″″-methylisoxazol-3′″″-yl)methanoyl]amino}-2″″-oxo-2″″H-pyridin-1″″-yl)propanoylamino]-5-(2″″″-oxopyrrolidin-3″″″-yl)pent-2-enoic Acid Cyclopentyl Ester], the kinact/KI in series [1] (HRV-14) was 1.2e+06 M⁻¹ s⁻¹. Moreover, the pEC50 is 8.40 in series [2]; 6.88 in series [3] (H1-HeLa, HRV-1A); 7.08 in series [3] (H1-HeLa, HRV-2); 7.39 in series [3] (setting [6]); 7.02 in series [3] (setting [7]); 7.12 in series [3] (setting [8]). Besides, the pEC50 in series [3] (setting [9]) was 7.49; in series [3] (setting [10]), 6.43; in series [3] (setting [11]), 6.84. The CC50 at 2 days in series [4] (line of HRV-14) was above 10000 nM. For the same molecule, the CC50 in series [5] (line of HRV-1A), in series [5] (line of HRV-2), in series [5] (line of HRV-3), in series [5] (line of HRV-9), in series [5] (line of HRV-10) and in series [5] (line of HRV-16) was above 10000 nM each time. In addition, the CC50 in series [5] (line of HRV-25) and in series [5] (line of HRV-39) was above 10000 nM throughout.

For `C#CC[C@@H](C(=O)N[C@H](/C=C/C(=O)OC(C)C)C[C@@H]1CCNC1=O)n1cccc(NC(=O)c2cc(C)on2)c1=O` [Compound 50, trans-(2′S,3′″″S,4S)-4-[2′-(3″- {[1′″-(5″″-Methylisoxazol-3″″-yl)methanoyl]amino}-2′″-oxo-2′″H-pyridin-1′″-yl)pent-4″-ynoylamino]-5-(2′″″-oxopyrrolidin-3′″″-yl)pent-2-enoic Acid Isopropyl Ester], the kinact/KI in series [1] (HRV-14) turned out to be 100000 M⁻¹ s⁻¹. For the same molecule, the pEC50 was 7.17 in series [2]; 6.70 in series [3] (H1-HeLa, HRV-1A); 6.98 in series [3] (H1-HeLa, HRV-2); 6.93 in series [3] (setting [6]); 6.91 in series [3] (setting [7]); 6.12 in series [3] (setting [8]). Further, the values for the pEC50 in series [3] (setting [9]), in series [3] (setting [10]) and in series [3] (setting [11]) were 6.73, 6.43 and below 6.00, respectively. The same molecule came in with a 50% cytotoxic concentration (CC50) at 2 days in series [4] (line of HRV-14) above 10000 nM. For the same molecule, the CC50 in series [5] (line of HRV-1A), in series [5] (line of HRV-2), in series [5] (line of HRV-3), in series [5] (line of HRV-9), in series [5] (line of HRV-10) and in series [5] (line of HRV-16) was above 10000 nM each time. Further, the CC50 in series [5] (line of HRV-25) and in series [5] (line of HRV-39) was above 10000 nM in each case.

Turning to `CC[C@@H](C(=O)N[C@H](/C=C/C(=O)OC(C)C)C[C@@H]1CCNC1=O)n1cccc(NC(=O)c2cc(C)on2)c1=O` [Compound 52, trans-(2′S,3′″″S,4S)-4-[2′-(3″-{[1′″-(5″″-Methylisoxazol-3″″-yl)methanoyl]amino}-2′″oxo-2′″H-pyridin-1′″-yl)butanoylamino]-5-(2′″″-oxopyrrolidin-3′″″-yl)pent-2-enoic Acid Isopropyl Ester], the kinact/KI in series [1] (HRV-14) is 36000 M⁻¹ s⁻¹. For the same molecule, the pEC50 is 6.74 in series [2]; 6.33 in series [3] (setting [7]); 6.75 in series [3] (setting [8]); 6.55 in series [3] (setting [9]); 6.96 in series [3] (setting [10]); 6.47 in series [3] (setting [11]). Moreover, the CC50 at 2 days in series [4] (line of HRV-14) was above 10000 nM. Moreover, the CC50 in series [5] (line of HRV-9), in series [5] (line of HRV-10), in series [5] (line of HRV-16), in series [5] (line of HRV-25) and in series [5] (line of HRV-39) was above 10000 nM each time.

Turning to `Cc1cc(C(=O)Nc2cccn([C@@H](Cc3ccc(F)c(F)c3)C(=O)N[C@H](/C=C/C(=O)OC3CCCCC3)C[C@@H]3CCNC3=O)c2=O)no1` [Compound 54, trans-(2′S,3″″″S,4S)-4-[3′-(3″,4″-Difluorophenyl)-2′-(3′″-{[1″″-(5′″″-methylisoxazol-3′″″-yl)methanoyl]amino}-2″″-oxo-2″″H-pyridin-1″″-yl)propanoylamino]-5-(2″″″-oxopyrrolidin-3″″″-yl)pent-2-enoic Acid Cyclohexyl Ester], the kinact/KI in series [1] (HRV-14) came out at 244000 M⁻¹ s⁻¹. Also, the pEC50 in series [2] is 7.35; in series [3] (H1-HeLa, HRV-1A), 6.31; in series [3] (H1-HeLa, HRV-2), 6.83; in series [3] (setting [7]), 6.29; in series [3] (setting [8]), 6.88; in series [3] (setting [9]) it was 6.85. In addition, the pEC50 in series [3] (setting [10]) was 6.67; in series [3] (setting [11]), 6.46. In series [4] (line of HRV-14), this molecule gave a CC50 at 2 days above 10000 nM. The CC50 in series [5] (line of HRV-1A), in series [5] (line of HRV-2), in series [5] (line of HRV-9), in series [5] (line of HRV-10), in series [5] (line of HRV-16) and in series [5] (line of HRV-25) was above 10000 nM throughout. For the same molecule, the CC50 in series [5] (line of HRV-39) was above 10000 nM.

With `C#CC[C@@H](C(=O)N[C@H](/C=C/C(=O)OC1CCCCC1)C[C@@H]1CCNC1=O)n1cccc(NC(=O)c2cc(C)on2)c1=O` [Compound 55, trans-(2′S,3′″″S,4S)-4-[2′-(3″-{[1′″-(5″″-Methylisoxazol-3″″-yl)methanoyl]amino}-2′″-oxo-2′″H-pyridin-1′″-yl)pent-4″-ynoylamino]-5-(2′″″-oxopyrrolidin-3′″″-yl)pent-2-enoic Acid Cyclohexyl Ester], in series [1] (HRV-14 3C protease), the kinact/KI turned out to be 34000 M⁻¹ s⁻¹. Moreover, the pEC50 was 6.76 in series [2]; 6.28 in series [3] (H1-HeLa, HRV-1A); 6.27 in series [3] (setting [7]); 6.71 in series [3] (setting [8]); 6.29 in series [3] (setting [10]). This molecule also gave a CC50 at 2 days in series [4] (HRV-14) above 10000 nM. For the same molecule, the CC50 in series [5] (HRV-1A), in series [5] (HRV-9), in series [5] (HRV-10) and in series [5] (HRV-25) was above 10000 nM in each case.

In general, pEC50 refers to the EC50 on a negative log10 scale, so that one unit is a factor of ten. A word on the CC50: it is the concentration that lowers cell viability or growth by half.
